Data as given in patent publication US12441736B2, “KIF18A inhibitors” (AMGEN INC., priority 2018, dated 2025).

biological target: T1, Recombinant human KIF18A (1-467 His-tagged) protein (Homo sapiens, UniProt Q8NI77); test: KIF18A Enzyme Assay: microtubule-stimulated ATPase activity (ADP-Glo); format: biochemical; conditions: 30 nM KIF18A, 30 μg/mL pig microtubules, 75 μM ATP, ADP-Glo luminescence
T1 construct: Recombinant human KIF18A (1-467 His-tagged) protein; His; made in house
Description: KIF18A Enzyme Assay: Microtubule-stimulated ATPase activity assay is used to measure KIF18A enzyme activity after treatment with compound. Compounds were 2-fold serially diluted in DMSO (Sigma Inc) over 22-point concentration range. Recombinant human KIF18A (1-467 His-tagged) protein was expressed using a baculovirus system and purified by affinity chromatography by Amgen Inc. Concentrations of KIF18A protein, microtubules (MT), and ATP in the reaction were optimized for standardized homogenous enzyme assay using ADP-Glo™ Kinase/ATPase Assay Kit (Promega Inc). The assay measures ADP formed from the ATPase reaction. Prepare reaction buffer [(15 mM Tris, pH 7.5 (Teknova Inc), 10 mM MgCl2 (IT Baker Inc), 0.01% Pluronic F-68 (Life Technologies Inc), 1 μM Taxol (Cytoskeleton Inc), and 30 μg/mL pig microtubules (Cytoskeleton Inc)]. Add compound and KIF18A protein (30 nM) to prepared reaction buffer and incubated for 15 minutes at room temperature, next add ATP (at Kin, 75 μM) to the reaction mixture and incubated for an additional 15 minutes at room temperature. Mix 5 μl of ADP-Glo™ Reagent and 2.5 μl of the reaction mixture and incubate for 40 minutes at room temperature. Add 10 μl ADP-Glo™ Detection Reagent and incubate for 40 minutes at room temperature. Read luminescence using EnVision microplate reader with ultra-luminescence module (Perkin Elmer Inc). Concentration-response curve-fitting and IC50 determination was performed using Genedata Screener Software (Standard 15.0.1, Genedata Inc) with a four-parameter logistic regression fit model.
Table A provides data for compounds exemplified in the present application and priority document thereof, as representative compounds of the present invention, as follows: chemical name (as named by either ACD software or ChemDraw (Professional 15.0)) and biological data (IC50 in μM). Ex. # refers to Example No.

T1 sequence (Q8NI77 1-467): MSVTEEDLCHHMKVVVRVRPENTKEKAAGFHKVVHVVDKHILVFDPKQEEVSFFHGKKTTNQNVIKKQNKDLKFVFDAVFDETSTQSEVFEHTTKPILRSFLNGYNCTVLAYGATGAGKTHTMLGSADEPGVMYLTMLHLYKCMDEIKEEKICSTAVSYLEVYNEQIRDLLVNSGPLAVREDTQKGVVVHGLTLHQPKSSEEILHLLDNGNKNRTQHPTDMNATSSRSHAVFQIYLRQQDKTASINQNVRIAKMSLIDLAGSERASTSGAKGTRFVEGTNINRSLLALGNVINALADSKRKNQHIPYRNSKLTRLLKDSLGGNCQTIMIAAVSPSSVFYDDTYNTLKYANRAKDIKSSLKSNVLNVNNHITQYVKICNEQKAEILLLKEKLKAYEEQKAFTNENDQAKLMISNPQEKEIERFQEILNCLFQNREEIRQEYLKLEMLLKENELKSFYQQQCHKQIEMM
T1 sequence (P02550 whole entry partner): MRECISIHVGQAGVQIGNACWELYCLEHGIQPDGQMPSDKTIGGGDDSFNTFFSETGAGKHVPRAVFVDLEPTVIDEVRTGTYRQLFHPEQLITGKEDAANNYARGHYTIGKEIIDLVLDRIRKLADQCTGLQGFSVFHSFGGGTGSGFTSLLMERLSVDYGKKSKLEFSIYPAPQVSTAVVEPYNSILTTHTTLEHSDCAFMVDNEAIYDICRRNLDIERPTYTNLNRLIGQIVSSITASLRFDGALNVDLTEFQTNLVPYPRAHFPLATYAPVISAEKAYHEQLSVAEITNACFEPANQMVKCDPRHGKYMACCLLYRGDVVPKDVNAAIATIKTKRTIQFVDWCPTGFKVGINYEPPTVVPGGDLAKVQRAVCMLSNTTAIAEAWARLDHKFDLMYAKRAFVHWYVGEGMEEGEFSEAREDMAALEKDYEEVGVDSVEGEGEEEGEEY
T1 sequence (P02554 whole entry partner): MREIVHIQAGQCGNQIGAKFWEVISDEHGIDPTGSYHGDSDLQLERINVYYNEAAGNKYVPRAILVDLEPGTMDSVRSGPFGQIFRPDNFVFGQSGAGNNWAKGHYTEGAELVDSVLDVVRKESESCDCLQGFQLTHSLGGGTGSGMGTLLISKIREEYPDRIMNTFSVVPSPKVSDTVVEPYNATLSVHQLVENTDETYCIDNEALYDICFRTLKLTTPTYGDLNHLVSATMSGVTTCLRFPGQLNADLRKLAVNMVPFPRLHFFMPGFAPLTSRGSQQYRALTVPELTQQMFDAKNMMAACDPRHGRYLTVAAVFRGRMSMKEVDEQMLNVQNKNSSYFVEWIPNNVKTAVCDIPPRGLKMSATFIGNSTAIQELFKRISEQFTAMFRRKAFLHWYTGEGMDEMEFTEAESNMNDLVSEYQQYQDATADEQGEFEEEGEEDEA

| Compound | IC50 |
| --- | --- |
| CC(C)(C)NS(=O)(=O)c1cccc(NC(=O)c2ccc(C3(C(F)(F)F)COC(C)(C)O3)nc2N2CCC3(CC2)CC3)n1 (racemic) [Example 171, N-(6-(N-(tert-butyl)sulfamoyl)pyridin-2-yl)-6-(2,2-dimethyl-4-(trifluoromethyl)-1,3-dioxolan-4-yl)-2-(6-azaspiro[2.5]octan-6-yl)nicotinamide] | 286 nM |
| C[C@@H]1CN(c2cccc(NC(=O)c3ncc(NS(C)(=O)=O)nc3N3CCC4(CC3)CC4)n2)CCO1 [Example 121, 3-(6-azaspiro[2.5]octan-6-yl)-N-(6-((2R)-2-methyl-4-morpholinyl)-2-pyridinyl)-5-((methylsulfonyl)amino)-2-pyrazinecarboxamide] | 642 nM |
| CC(C)(CO)Nc1ccc(C(=O)Nc2cccc(N3CCC[C@H](O)C3)n2)c(N2CCC3(CC2)CC3)n1 [Example 228, 2-(6-azaspiro[2.5]octan-6-yl)-6-((1-hydroxy-2-methyl-2-propanyl)amino)-N-(6-((3S)-3-hydroxy-1-piperidinyl)-2-pyridinyl)-3-pyridinecarboxamide] | 69.7 nM |
| CC(C)(C)NS(=O)(=O)c1cccc(NC(=O)c2ccc([C@](C)(O)CO)nc2N2CCC3(CC2)CC3)n1 (single isomer, unassigned) [Example 177] | 87.3 nM |
| O=C(Nc1cccc(N2CCOCC2)n1)c1ccc([C@](O)(CO)C(F)(F)F)nc1N1CCC2(CC1)CC2 (single isomer, unassigned) [Example 202] | 68.4 nM |
| CC(C)(CO)Nc1cccc(NC(=O)c2ccc(NC(C)(C)CO)nc2N2CCC3(CC2)CC3)n1 [Example 162, 2-(6-azaspiro[2.5]octan-6-yl)-6-((1-hydroxy-2-methyl-2-propanyl)amino)-N-(6-((1-hydroxy-2-methyl-2-propanyl)amino)-2-pyridinyl)-3-pyridinecarboxamide] | 70.7 nM |
| CC(C)(CO)Nc1cnc(C(=O)Nc2cc(C3CC3)cc(N3CCOCC3)n2)c(N2CCC3(CC2)CC3)n1 [Example 118, 3-(6-azaspiro[2.5]octan-6-yl)-N-(4-cyclopropyl-6-(4-morpholinyl)-2-pyridinyl)-5-((1-hydroxy-2-methyl-2-propanyl)amino)-2-pyrazinecarboxamide] | 540 nM |
| CC(C)(C)NS(=O)(=O)c1cccc(NC(=O)c2ccc(F)nc2N2CCC3(CC2)CC3)n1 [Example 173, 2-(6-azaspiro[2.5]octan-6-yl)-6-fluoro-N-(6-((2-methyl-2-propanyl)sulfamoyl)-2-pyridinyl)-3-pyridinecarboxamide] | 643 nM |

Further compounds by falling IC50, results first:

| IC50 | Compound |
| --- | --- |
| 217 nM | CC(C)(CO)Nc1ccc(C(=O)Nc2cccc(N3CC(O)CC3(C)C)n2)c(N2CCC3(CC2)CC3)n1 (stereo not drawn) [Example 219, N-(6-(4-hydroxy-2,2-dimethylpyrrolidin-1-yl)pyridin-2-yl)-6-((1-hydroxy-2-methylpropan-2-yl)amino)-2-(6-azaspiro[2.5]octan-6-yl)nicotinamide] |
| 182 nM | CC(C)(CO)Nc1cnc(C(=O)Nc2cccc(N3C[C@@H]4C[C@H]3CO4)n2)c(N2CCC3(CC2)CC3)n1 (racemic) [Example 112, N-(6-((1S,4S)-2-oxa-5-azabicyclo[2.2.1]heptan-5-yl)pyridin-2-yl)-5-((1-hydroxy-2-methylpropan-2-yl)amino)-3-(6-azaspiro[2.5]octan-6-yl)pyrazine-2-carboxamide] |
| 76.9 nM | O=C(Nc1cccc(N2CCOCC2)n1)c1ccc([C@@](O)(CO)C(F)(F)F)nc1N1CCC2(CC1)CC2 (single isomer, unassigned) [Example 201] |
| 59.1 nM | CC(CO)(CO)Nc1ccc(C(=O)Nc2cccc(N3CCC(F)(F)C3)n2)c(N2CCC3(CC2)CC3)n1 [Example 149, 2-(6-azaspiro[2.5]oct-6-yl)-N-(6-(3,3-difluoro-1-pyrrolidinyl)-2-pyridinyl)-6-((1,3-dihydroxy-2-methyl-2-propanyl)amino)-3-pyridinecarboxamide] |
